# In article PMC5550016, “Aminophosphinates against Helicobacter pylori ureolysis—Biochemical and whole-cell inhibition characteristics” (PLoS ONE, 2017):
# Read-outs that look alike come from different tables or passages of the source.
# How the values were obtained:
# [1] = target: T1, purified recombinant urease from H. pylori (Helicobacter pylori, UniProt B5Z674); assay: Inhibition of purified recombinant H. pylori urease (phenol-hypochlorite, Lineweaver-Burk); format: biochemical; conditions: 50 mM phosphate buffer pH 7.5, 37°C, 0.1–2.5 mM urea, competitive reversible inhibition
# T1 construct: plasmid pGEM::ureOP, which encodes the entire urease gene cluster, was used to produce recombinant H. pylori urease; made in house; host or cells: E. coli Rosetta2 (DE3) + pGEM::ureOP
# T1 sequence (B5Z674 whole entry, looked up): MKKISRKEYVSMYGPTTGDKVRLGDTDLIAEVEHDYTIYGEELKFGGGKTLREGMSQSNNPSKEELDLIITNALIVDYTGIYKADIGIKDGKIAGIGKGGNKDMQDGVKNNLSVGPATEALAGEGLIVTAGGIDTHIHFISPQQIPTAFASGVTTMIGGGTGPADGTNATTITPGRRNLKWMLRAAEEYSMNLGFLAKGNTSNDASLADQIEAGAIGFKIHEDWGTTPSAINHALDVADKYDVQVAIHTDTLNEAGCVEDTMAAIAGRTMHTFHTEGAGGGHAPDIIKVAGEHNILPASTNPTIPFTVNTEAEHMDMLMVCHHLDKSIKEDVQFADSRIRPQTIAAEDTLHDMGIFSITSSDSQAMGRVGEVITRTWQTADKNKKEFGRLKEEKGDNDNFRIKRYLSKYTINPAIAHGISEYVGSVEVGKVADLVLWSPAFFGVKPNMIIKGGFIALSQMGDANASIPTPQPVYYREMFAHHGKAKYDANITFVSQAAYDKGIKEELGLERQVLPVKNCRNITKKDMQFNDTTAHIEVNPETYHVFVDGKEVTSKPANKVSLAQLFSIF
# Description: The kinetic parameters of urease were determined by measuring the initial rates of the reactions in 50 mM phosphate buffer (pH 7.5) at 37°C. Ammonia was routinely quantified by the phenol hypochlorite method as reported previously.
# Inhibition studies were conducted by initiating the enzymatic reaction with the addition of the enzyme into assay mixtures (200 μL total volume) containing increasing concentrations of inhibitors and 0.1–2.5 mM urea. After 15 min of incubation at 37°C, the reaction was stopped by adding phenol-hypochlorite reagents and the absorbance of the formed indophenol blue complexes was measured at 650 nm. The Ki values were determined from Lineweaver-Burk plots after testing at least five inhibitor concentrations in a range that depended on their inhibitory strength. The concentration of inhibitor that caused the loss of 50% of the enzyme’s activity (IC50) was determined from the measurements that were performed at a urea concentration of 0.6 mM and calculated using the linear regression of the urease activity versus the logarithm of the inhibitor concentrations.
# The values of Ki and IC50 for all analyzed compounds were calculated using the appropriate equations in GraphPad Prism 5. Errors were reported with two significant digits, and each measured parameter was given with the same number of decimal places as its error [32].
# [2] = target: T2, urease in intact E. coli (pGEM::ureOP) cells (Helicobacter pylori, UniProt B5Z674); assay: Urease inhibition in whole cells of E. coli + pGEM::ureOP; format: cell-based; conditions: IC50 exceeding 2 mM considered not active
# T2 construct: plasmid pGEM::ureOP, which encodes the entire urease gene cluster, was used to produce recombinant H. pylori urease; expressed in transfected cells; host or cells: E. coli Rosetta2 (DE3) transformed with pGEM::ureOP
# T2 sequence (B5Z674 whole entry, looked up): as above
# Description: The expression strain E. coli + pGEM::ureOP was cultured in 150 mL of LB broth (Biocorp, Poland) with 100 μg/mL ampicillin (Polfa, Tarchomin, Poland) at 37°C and induced with IPTG (0.75 mM) and Ni^2+ (0.75 mM) during the exponential growth phase, which was determined by the OD600 measurements (OD600 = 0.6). Further expression was conducted for 24 h at 22°C. The bacterial culture (1 mL) was harvested via centrifugation (2 min, 20 376 x g, 37°C) and washed three times with PBS. The pellets from 1-mL samples of the expression cell culture were resuspended in 100 μL of PBS. The hydrolysis of urea that is catalyzed by whole bacterial cells was performed in 96-well plates (Rotilabo, U-profile). The reaction progress curves were obtained by the addition of bacterial cells (1×10^9 CFU/mL final concentration) into mixtures (300 μL final volume) that contained 5 mM urea and various inhibitor concentrations that depended on their inhibitory strength. Alternatively, the reaction was initiated via the addition of a concentrated solution of urea after a 120-min preincubation of bacterial cells with the inhibitor. Samples (50 μL) of the reaction mixture were removed after the appropriate reaction time. The enzymatic reactions in the samples were terminated via the introduction of 100 μL of phenol-sodium nitroprusside solution, immediately followed by the addition of 100 μL of NaOH-hypochlorite solution. The absorption of indophenol blue was measured at 650 nm using a TECAN-Sunrise absorbance reader equipped with a gradient filter and Magellan software. The IC50 values were determined from the linear regression of the urease activity versus the logarithm of the inhibitor concentration. The reaction was studied in the absence and in the presence of the inhibitor. The influence of dimethylformamide (DMF), which was used as a solvent for several compounds, was also determined.
# [3] = target: T3, urease in intact H. pylori J99 (Helicobacter pylori, UniProt P69997); assay: Urease inhibition in whole cells of H. pylori J99; format: cell-based
# T3 construct: In the intact H. pylori J99 cells, the urease susceptibility profile was similar to that of E. coli (pGEM::ureOP); endogenous in cells
# T3 sequence (Q9ZMZ4 whole entry): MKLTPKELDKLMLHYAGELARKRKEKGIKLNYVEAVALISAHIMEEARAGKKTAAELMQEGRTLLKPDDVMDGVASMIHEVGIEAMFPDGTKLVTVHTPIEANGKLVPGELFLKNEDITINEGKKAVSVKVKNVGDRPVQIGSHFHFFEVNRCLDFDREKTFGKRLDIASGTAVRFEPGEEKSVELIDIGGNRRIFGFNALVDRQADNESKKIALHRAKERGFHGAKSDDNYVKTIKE
# T3 sequence (P69997 whole entry): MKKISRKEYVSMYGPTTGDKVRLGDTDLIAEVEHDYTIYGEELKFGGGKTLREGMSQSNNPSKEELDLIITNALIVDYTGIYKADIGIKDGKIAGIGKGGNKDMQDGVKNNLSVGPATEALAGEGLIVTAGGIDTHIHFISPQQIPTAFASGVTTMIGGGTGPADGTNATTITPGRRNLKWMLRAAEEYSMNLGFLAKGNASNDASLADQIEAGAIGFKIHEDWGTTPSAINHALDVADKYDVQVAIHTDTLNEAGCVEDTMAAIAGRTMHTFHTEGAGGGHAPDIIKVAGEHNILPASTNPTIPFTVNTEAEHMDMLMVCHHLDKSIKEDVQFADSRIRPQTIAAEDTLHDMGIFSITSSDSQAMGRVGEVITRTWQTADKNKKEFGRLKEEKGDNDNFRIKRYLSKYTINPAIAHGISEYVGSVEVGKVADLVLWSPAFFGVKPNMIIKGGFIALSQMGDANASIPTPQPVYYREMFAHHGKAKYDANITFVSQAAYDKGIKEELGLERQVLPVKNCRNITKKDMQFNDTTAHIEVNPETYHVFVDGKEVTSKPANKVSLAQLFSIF
# [4] = system: mouse fibroblasts BALB/3T3; assay: Sulforhodamine B antiproliferative assay, BALB/3T3; format: cell-based; conditions: compound 0.5 mM, 72 h, read-out: % Proliferation inhibition ± SD
# Description: (§1) The BALB/3T3 cell line was cultured in Dulbecco MEM (Gibco, Scotland) supplemented with 10% (v/v) FBS (Sigma-Aldrich, Poznań, Poland) and 2 mM L-glutamine (Sigma-Aldrich, Poznań, Poland). The MCF-10A cell line was cultured in F-12 Nutrient mixture supplemented with 5% (v/v) horse serum (both Gibco, Scotland), 0.05 μg/mL cholera toxin, 10 μg/mL insulin, 0.5 μg/mL hydrocortisone, and 20 ng/mL EGFH (all Sigma-Aldrich, Poznań, Poland). The Eph4-Ev cell line was cultured in Dulbecco MEM supplemented with 2 mM L-glutamine, 10% (v/v) calf bovine serum (ATCC Rockville, Maryland, USA) and puromycin (Sigma-Aldrich, Poznań, Poland). The HEC A10 cell line was cultured in OPTI-MEM (IIET, Wroclaw, Poland) supplemented with 2 mM L-glutamine and 5% (v/v) FBS. All culture media were additionally supplemented with antibiotics: 100 U/mL penicillin and 100 μg/mL streptomycin (both Polfa-Tarchomin, Poland). During all experiments, cells were maintained in a humid atmosphere at 37°C and 5% CO2 and passaged twice a week using EDTA-Trypsin (pH 8; IIET, Wroclaw, Poland) solution as a detachment agent.
# (§2) This assay was used as previously described with minor modifications. Briefly, 24 h before adding the tested compounds, cells were seeded in 96-well plates (Sarstedt, Germany) in appropriate culture medium with 10^5 […] (100 μL/well). Cells were treated with each compound in at least four concentrations in the range from 500–4 μM for 72 h. Next, cells were fixed with 50 μL/well of 50% (w/v) trichloroacetic acid (Avantor Performance Materials, Gliwice, Poland). After a 1-hour incubation, the plates were washed several times with tap water, and 50 μL of 0.4% (w/v) solution of sulforhodamine B (Sigma-Aldrich, Germany) in 1% (v/v) acetic acid (Avantor Performance Materials, Gliwice, Poland) was added to each well. After a 30-min incubation at room temperature, unbound dye was washed out with 1% (v/v) acetic acid, whereas bound dye was solubilized with 10 mM unbuffered TRIS (Avantor Performance Materials, Gliwice, Poland) solution. The entire procedure was performed using an EL-406 washing station (BioTek Instruments, USA). Next, absorbance at 540 nm was measured using a Synergy H4 Hybrid Reader (BioTek Instruments, USA). Compounds at each concentration were tested in triplicate in a single experiment, and each experiment was repeated three times independently. The results were calculated using the Prolab-3 system based on Cheburator 0.4 software and was presented as proliferation inhibition percentages at the highest concentration used.
# [5] = system: murine mammary gland epithelium Eph4-Ev; assay: Sulforhodamine B antiproliferative assay, Eph4-Ev; format: cell-based; conditions: Mus musculus, compound 0.5 mM, 72 h, read-out: % Proliferation inhibition ± SD
# Description: as §1, §2
# [6] = system: immortalized murine endothelial cell line from peripheral lymph node HEC A10; assay: Sulforhodamine B antiproliferative assay, HEC A10; format: cell-based; conditions: Mus musculus, compound 0.5 mM, 72 h, read-out: % Proliferation inhibition ± SD
# Description: as §1, §2
# [7] = system: human mammary gland MCF-10A; assay: Sulforhodamine B antiproliferative assay, MCF-10A; format: cell-based; conditions: compound 0.5 mM, 72 h, read-out: % Proliferation inhibition ± SD
# Description: as §1, §2
# [8] = target: purified urease from Sporosarcina pasteurii (SPU); design: method as in PMID 18717581, PMID 20684601, PMID 21559954, PMID 25699141; conditions: read-out: Ki against SPU; cited from earlier work
# [9] = IC500, without preincubation of cells with inhibitory compounds, 30-min reactions, 5 mM urea
# [10] = IC502h PBS, 2 h of preincubation with inhibitors in PBS
# [11] = cells grown with urea, 2 h of preincubation with inhibitors in PBS under microaerobic conditions, read-out: IC502h PBS
# [12] = cells grown with urea, 2 h of preincubation with inhibitors in growth medium under microaerobic conditions, read-out: IC502h medium
# [13] = cells grown with urea, without preincubation, read-out: IC500
# [14] = cells grown without urea, 2 h of preincubation with inhibitors in PBS under microaerobic conditions, read-out: IC502h PBS
# [15] = cells grown without urea, without preincubation, read-out: IC500
# [16] = read-out: IC500, without preincubation of cells with inhibitory compounds, 30-min reactions, 5 mM urea
# [17] = read-out: IC502h PBS, 2 h of preincubation with inhibitors in PBS
Compound,Ki ([1]; Ki) [µM],"IC50 [2, 9] [µM]","IC50 [2, 10] [µM]","IC50 [3, 11] [µM]","IC50 [3, 12] [µM]","IC50 [3, 13] [µM]","IC50 [3, 14] [µM]","IC50 [3, 15] [µM]",inhibition at 500 µM [4] [%],inhibition at 500 µM [5] [%],inhibition at 500 µM [6] [%],inhibition at 500 µM [7] [%],Ki [8] [nM],"IC50 [2, 16] [µM]","IC50 [2, 17] [µM]","IC500 ([2]; without preincubation of cells with inhibitory compounds, 30-min reactions, 5 mM urea)","IC50 ([3]; cells grown without urea, preincubated cells, read-out: IC50) [µM]",Ki [1] [µM]
"CNCP(=O)(O)O [Compound 1, N-methylaminomethylphosphonic acid]",38.3 ± 1.1,164 ± 24,110 ± 21,349 ± 29,202 ± 43,400 ± 8.7,598 ± 81,316 ± 18,2.7 ± 1.8,1.3 ± 2.3,0,0,–,–,–,–,–,–
CNCP(C)(=O)O [Compound 2],61.6 ± 3.5,573 ± 76,306 ± 48,468 ± 21,274 ± 87,597.4 ± 5.2,852 ± 40,480 ± 79,1.4 ± 1.1,1.1 ± 1,0,0,–,–,–,–,–,–
"CN(C)CP(C)(=O)O [Compound 3, N,N-dimethylaminomethyl-P-methylphosphinic acid]",9.27 ± 0.35,179 ± 32,25.1 ± 4.9,395 ± 37,304 ± 16,640 ± 18,765 ± 31,530 ± 24,–,–,–,–,620,–,–,–,–,–
"NCP(=O)(O)CN [Compound 6, Bis(aminomethyl)phosphinic acid]",61 ± 9.2,–,–,> 2000,> 2000,> 2000,611 ± 63,1300 ± 239,3.2 ± 1.6,0,7.7 ± 2.4,0,–,> 2000,> 2000,complete lack of inhibitory effects,–,–
CNCP(=O)(O)CN [Compound 7],20.9 ± 2,880 ± 105,440 ± 61,456 ± 45,574 ± 44,> 2000,418 ± 48,327 ± 68,0,3.9 ± 2.1,0,0,–,–,–,–,< 500,–
CCCNCP(=O)(O)CN [Compound 9],22.1 ± 2.1,746 ± 94,306 ± 43,940 ± 59,553 ± 44,1500 ± 160,883 ± 96,772 ± 143,0.7 ± 0.6,0,2.2 ± 1.5,0,–,–,–,–,–,–
CCCCCCCCNCP(=O)(O)CN [Compound 15],–,–,–,712 ± 28,276 ± 17,1010 ± 84,638 ± 22,1260 ± 53,0,2.7 ± 1.1,0,1.8 ± 1.2,–,> 2000,> 2000,–,–,> 2000
"CNCP(=O)(O)CNC [Compound 21, bis(N-methylaminomethyl)phosphinic acid]",26.1 ± 1.8,1260 ± 189,269 ± 39,549 ± 15,117 ± 7.4,443 ± 24,132 ± 21,581 ± 37,0,2.2 ± 1.5,0,0,–,–,–,–,–,–
